# Measured values published in PMC5845541, “Novel Sodium Channel Inhibitor From Leeches” (Frontiers in Pharmacology, 2018).
# Positions of bridges follow the written chain, without caps; N, C: chain ends. Residues, ends and D or L forms follow the SMILES beside them.
# What was measured:
# [1] = molecular target: rNaV1.8 (rat NaV1.8) (Rattus norvegicus, UniProt Q62968); assay: cell-based
# [2] = molecular target: T1, mNaV1.9 (mouse NaV1.9) (Mus musculus, UniProt Q9R053); assay: cell-based; settings: NaV1.8-null mouse small DRG neurons, 300 nM TTX; 100-ms step to –40 mV from holding potential –110 mV; variable slope fit; room temperature; mean ± SEM; read-out: IC50 for inhibition of mNaV1.9 currents
# T1 construct: Representative current traces of mNaV1.9, recorded from the NaV1.8-null mouse small DRG neurons; endogenous in cells; host or cells: small DRG neurons of NaV1.8-null mice
# T1 sequence (Q9R053 whole entry): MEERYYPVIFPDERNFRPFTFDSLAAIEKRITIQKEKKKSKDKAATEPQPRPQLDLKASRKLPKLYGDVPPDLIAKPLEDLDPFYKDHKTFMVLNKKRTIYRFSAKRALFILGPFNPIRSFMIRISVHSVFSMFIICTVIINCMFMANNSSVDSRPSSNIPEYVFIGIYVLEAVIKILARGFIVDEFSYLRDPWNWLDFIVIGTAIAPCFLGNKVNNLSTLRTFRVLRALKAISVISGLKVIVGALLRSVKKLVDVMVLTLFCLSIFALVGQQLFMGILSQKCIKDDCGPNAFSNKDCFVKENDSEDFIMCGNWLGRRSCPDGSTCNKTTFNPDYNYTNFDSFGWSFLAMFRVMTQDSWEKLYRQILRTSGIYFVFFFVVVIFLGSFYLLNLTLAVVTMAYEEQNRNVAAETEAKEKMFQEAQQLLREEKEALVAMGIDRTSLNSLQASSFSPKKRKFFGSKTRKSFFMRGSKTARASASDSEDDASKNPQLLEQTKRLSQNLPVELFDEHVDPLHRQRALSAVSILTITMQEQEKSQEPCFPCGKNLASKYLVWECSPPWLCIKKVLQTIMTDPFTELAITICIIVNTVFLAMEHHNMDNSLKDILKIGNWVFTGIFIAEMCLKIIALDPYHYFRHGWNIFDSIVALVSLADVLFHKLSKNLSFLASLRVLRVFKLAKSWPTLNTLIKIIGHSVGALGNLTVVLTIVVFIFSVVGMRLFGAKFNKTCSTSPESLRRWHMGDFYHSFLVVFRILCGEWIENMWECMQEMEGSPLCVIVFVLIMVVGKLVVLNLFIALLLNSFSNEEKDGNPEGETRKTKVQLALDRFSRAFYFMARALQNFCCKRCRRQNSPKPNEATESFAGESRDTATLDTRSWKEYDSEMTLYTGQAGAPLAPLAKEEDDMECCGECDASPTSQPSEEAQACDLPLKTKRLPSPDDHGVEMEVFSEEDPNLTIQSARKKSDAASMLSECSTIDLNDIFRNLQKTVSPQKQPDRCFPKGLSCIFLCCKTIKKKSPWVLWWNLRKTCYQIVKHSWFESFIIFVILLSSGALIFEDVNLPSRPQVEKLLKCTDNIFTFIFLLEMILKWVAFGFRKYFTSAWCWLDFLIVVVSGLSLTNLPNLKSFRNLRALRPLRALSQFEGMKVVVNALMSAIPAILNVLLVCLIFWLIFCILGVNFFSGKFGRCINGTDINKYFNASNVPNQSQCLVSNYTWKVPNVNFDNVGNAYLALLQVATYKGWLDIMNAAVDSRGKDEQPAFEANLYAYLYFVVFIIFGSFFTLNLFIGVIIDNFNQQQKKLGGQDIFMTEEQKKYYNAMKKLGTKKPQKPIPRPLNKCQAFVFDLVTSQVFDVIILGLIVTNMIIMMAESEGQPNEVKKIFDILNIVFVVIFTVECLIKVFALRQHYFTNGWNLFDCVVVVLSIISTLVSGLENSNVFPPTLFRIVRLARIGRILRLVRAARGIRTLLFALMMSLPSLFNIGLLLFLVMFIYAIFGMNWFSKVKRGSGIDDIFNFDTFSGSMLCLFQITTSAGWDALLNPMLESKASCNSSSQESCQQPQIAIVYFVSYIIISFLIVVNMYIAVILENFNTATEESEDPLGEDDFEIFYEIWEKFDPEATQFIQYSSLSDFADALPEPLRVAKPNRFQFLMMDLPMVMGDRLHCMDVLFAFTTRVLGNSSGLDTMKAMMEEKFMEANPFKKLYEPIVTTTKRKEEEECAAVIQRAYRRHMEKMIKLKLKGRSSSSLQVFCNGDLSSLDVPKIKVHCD
# Sequence of rNaV1.8 (rat NaV1.8) (Q62968 whole entry): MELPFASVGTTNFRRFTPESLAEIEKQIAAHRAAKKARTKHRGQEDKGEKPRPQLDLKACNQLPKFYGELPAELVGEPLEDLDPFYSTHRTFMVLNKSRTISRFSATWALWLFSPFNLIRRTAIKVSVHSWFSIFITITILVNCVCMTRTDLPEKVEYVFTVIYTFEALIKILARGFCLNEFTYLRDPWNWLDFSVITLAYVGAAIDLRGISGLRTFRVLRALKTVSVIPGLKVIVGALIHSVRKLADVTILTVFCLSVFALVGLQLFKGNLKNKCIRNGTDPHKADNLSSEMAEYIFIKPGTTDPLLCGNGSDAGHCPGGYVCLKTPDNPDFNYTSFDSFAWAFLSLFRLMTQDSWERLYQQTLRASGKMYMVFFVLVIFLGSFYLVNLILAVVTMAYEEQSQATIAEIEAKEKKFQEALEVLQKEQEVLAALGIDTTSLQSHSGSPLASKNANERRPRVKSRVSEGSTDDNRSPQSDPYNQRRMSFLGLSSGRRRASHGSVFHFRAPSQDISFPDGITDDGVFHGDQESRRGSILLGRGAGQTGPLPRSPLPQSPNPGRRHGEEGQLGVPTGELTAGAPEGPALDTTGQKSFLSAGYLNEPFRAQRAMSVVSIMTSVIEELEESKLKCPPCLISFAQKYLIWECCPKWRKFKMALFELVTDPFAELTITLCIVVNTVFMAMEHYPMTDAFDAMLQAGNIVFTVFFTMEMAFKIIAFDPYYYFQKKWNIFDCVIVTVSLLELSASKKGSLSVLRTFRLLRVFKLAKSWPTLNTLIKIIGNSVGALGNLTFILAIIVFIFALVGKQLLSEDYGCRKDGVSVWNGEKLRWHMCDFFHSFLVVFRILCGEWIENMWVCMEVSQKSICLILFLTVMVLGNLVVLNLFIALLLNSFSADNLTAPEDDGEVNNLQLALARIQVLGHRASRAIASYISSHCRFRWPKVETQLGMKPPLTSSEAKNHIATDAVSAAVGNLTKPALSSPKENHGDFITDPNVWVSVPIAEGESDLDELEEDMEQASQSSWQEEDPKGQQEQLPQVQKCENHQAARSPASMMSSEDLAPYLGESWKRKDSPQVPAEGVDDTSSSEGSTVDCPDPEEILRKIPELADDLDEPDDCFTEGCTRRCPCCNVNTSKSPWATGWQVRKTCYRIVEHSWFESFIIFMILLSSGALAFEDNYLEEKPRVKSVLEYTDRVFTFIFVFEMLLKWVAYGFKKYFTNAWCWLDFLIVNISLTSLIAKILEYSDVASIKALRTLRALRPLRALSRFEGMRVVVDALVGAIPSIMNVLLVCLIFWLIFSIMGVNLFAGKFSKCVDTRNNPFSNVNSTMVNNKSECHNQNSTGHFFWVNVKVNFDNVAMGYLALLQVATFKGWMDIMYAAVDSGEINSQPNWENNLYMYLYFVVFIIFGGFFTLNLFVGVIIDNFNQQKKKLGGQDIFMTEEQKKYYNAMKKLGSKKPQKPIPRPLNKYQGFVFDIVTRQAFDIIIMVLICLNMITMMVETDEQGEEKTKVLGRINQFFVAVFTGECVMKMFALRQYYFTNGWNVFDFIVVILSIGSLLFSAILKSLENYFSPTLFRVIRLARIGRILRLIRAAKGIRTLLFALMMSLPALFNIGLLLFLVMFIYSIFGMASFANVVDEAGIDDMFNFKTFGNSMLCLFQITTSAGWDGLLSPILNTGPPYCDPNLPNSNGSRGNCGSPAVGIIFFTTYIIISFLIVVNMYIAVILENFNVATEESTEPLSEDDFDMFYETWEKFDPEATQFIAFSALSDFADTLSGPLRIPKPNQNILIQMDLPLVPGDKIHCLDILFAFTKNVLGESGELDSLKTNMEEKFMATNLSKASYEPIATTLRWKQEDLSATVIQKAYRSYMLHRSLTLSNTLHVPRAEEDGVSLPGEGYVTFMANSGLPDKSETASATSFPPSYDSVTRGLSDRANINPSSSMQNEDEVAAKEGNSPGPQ
smiles,measurement,setting,value
"CC[C@H](C)[C@H](NC(=O)[C@H](CCSC)NC(=O)[C@@H]1CCCN1C(=O)[C@@H](NC(=O)[C@@H]1CSSC[C@@H]2NC(=O)[C@H](CCC(=O)O)NC(=O)[C@H](Cc3c[nH]c4ccccc34)NC(=O)[C@H](Cc3ccc(O)cc3)NC(=O)[C@H](CCC(=O)O)NC(=O)[C@H](CCCCN)NC(=O)[C@@H](NC(=O)[C@H](C)N)CSSC[C@H](NC(=O)[C@H](Cc3ccccc3)NC(=O)[C@H](CC(C)C)NC(=O)[C@H](Cc3ccccc3)NC(=O)[C@H](C)NC(=O)CNC2=O)C(=O)N[C@@H]([C@@H](C)CC)C(=O)N[C@@H](CCC(=O)O)C(=O)NCC(=O)N[C@@H]([C@@H](C)CC)C(=O)N1)C(C)C)C(N)=O [HSTX-I] (H-ACKEYWECGAFLFCIEGICVPMI-NH2; disulfide 2-14, 8-19)",IC50,[1],~2440 nM
same,IC50,[2],~3300 nM
